This assay has as its system L1210 leukemia ip in BDF1 mice, survival T/C. Description: NCI In Vivo Anticancer Drug Screen. Data for tumor model L1210 Leukemia (intraperitoneal) in B6D2F1 (BDF1) mice. As to conditions: endpoint: mean survival time, higher = longer survival. The method, boiled down:
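Each compound was tested against a transplantable tumor grown in mice. The endpoint was survival, with treated animals benchmarked against vehicle controls as a simple ratio.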

The mark [1] stands for this setting: dose: 50.0 mg/kg/injection, schedule: Q04DX003 (ip), vehicle: saline with Tween-80.
The mark [2] stands for this setting: dose: 100.0 mg/kg/injection, schedule: Q04DX003 (ip), vehicle: saline with Tween-80.
The mark [3] stands for this setting: dose: 200.0 mg/kg/injection, schedule: Q04DX003 (ip), vehicle: saline with Tween-80.
Setting [4] is: dose: 400.0 mg/kg/injection, schedule: Q04DX003 (ip), vehicle: saline with Tween-80.
[5] abbreviates: dose: 100.0 mg/kg/injection, schedule: Q01DX001 (ip), vehicle: carboxymethylcellulose (CMC).
[6] abbreviates: dose: 200.0 mg/kg/injection, schedule: Q01DX001 (ip), vehicle: carboxymethylcellulose (CMC).
The mark [7] stands for this setting: dose: 400.0 mg/kg/injection, schedule: Q01DX001 (ip), vehicle: carboxymethylcellulose (CMC).
Where [8] appears, read: dose: 100.0 mg/kg/injection, schedule: Q04DX003 (ip), vehicle: saline.
[9] abbreviates: dose: 100.0 mg/kg/injection, schedule: Q01DX009 (ip), vehicle: Klucel (hydroxypropylcellulose) (HPC).
[10] abbreviates: dose: 100.0 mg/kg/injection, schedule: Q04DX003 (ip), vehicle: Klucel (hydroxypropylcellulose) (HPC).
The mark [11] stands for this setting: dose: 200.0 mg/kg/injection, schedule: Q01DX009 (ip), vehicle: Klucel (hydroxypropylcellulose) (HPC).
The mark [12] stands for this setting: dose: 200.0 mg/kg/injection, schedule: Q04DX003 (ip), vehicle: Klucel (hydroxypropylcellulose) (HPC).
The mark [13] stands for this setting: dose: 400.0 mg/kg/injection, schedule: Q04DX003 (ip), vehicle: Klucel (hydroxypropylcellulose) (HPC).
[14] abbreviates: dose: 50.0 mg/kg/injection, schedule: Q04DX003 (ip), vehicle: saline.
[15] abbreviates: dose: 400.0 mg/kg/injection, schedule: Q01DX009 (ip), vehicle: Klucel (hydroxypropylcellulose) (HPC).
Where [16] appears, read: dose: 200.0 mg/kg/injection, schedule: Q04DX003 (ip), vehicle: saline.

Toxic doses and inconclusive results are not listed.

In the case of `Fc1c(F)c(F)c(-c2c(F)c(F)c(-c3c(F)c(F)c(-c4c(F)c(F)c(F)c(F)c4F)c(F)c3F)c(F)c2F)c(F)c1F`, the T/C by setting is: (dose: 100.0 mg/kg/injection, schedule: Q01DX001 (ip), vehicle: saline with Tween-80) 88 % of control; (dose: 200.0 mg/kg/injection, schedule: Q01DX001 (ip), vehicle: saline with Tween-80) 88 % of control; (dose: 400.0 mg/kg/injection, schedule: Q01DX001 (ip), vehicle: saline with Tween-80) 88 % of control.
In the case of `BrCC1CCCO1` (stereo not drawn), the T/C reads like this: (dose: 25.0 mg/kg/injection, schedule: Q01DX009 (ip), vehicle: saline with Tween-80) 106 % of control; (dose: 25.0 mg/kg/injection, schedule: Q04DX003 (ip), vehicle: saline with Tween-80) 102 % of control; (dose: 50.0 mg/kg/injection, schedule: Q01DX009 (ip), vehicle: saline with Tween-80) 90 % of control; under setting [1], 101 % of control; (dose: 100.0 mg/kg/injection, schedule: Q01DX009 (ip), vehicle: saline with Tween-80) 89 % of control; under setting [2], 101 % of control.
In the case of `Nc1ccc(S(=O)(=O)c2ccc(NCCc3ccccn3)cc2)cc1`, the T/C is 97 % of control under setting [2], 105 % of control under setting [3] and 100 % of control under setting [4].
In the same order, the values of `C(#CCOc1ccccc1)COc1ccccc1` are 97 % of control, 97 % of control and 97 % of control.
`O=C(C[n+]1ccccc1CO)c1ccc(-c2ccc(C(=O)C[n+]3ccccc3CO)cc2)cc1`: the T/C reads like this: (dose: 0.15 mg/kg/injection, schedule: Q04DX003 (ip), vehicle: saline) 97 % of control; (dose: 0.3 mg/kg/injection, schedule: Q04DX003 (ip), vehicle: saline) 96 % of control; (dose: 0.6 mg/kg/injection, schedule: Q04DX003 (ip), vehicle: saline) 100 % of control.
Take `CCCCCCC(C)(O)CCCCOC(C)OCC` (stereo not drawn): the T/C (dose: 50.0 mg/kg/injection, schedule: Q04DX002 (ip), vehicle: saline with Tween-80) is 95 % of control; the T/C (dose: 100.0 mg/kg/injection, schedule: Q04DX002 (ip), vehicle: saline with Tween-80) was 95 % of control; the T/C (dose: 200.0 mg/kg/injection, schedule: Q04DX002 (ip), vehicle: saline with Tween-80) was 88 % of control; the T/C (dose: 400.0 mg/kg/injection, schedule: Q04DX002 (ip), vehicle: saline with Tween-80) is 95 % of control.
As to `S=C(Nc1ccc(Cl)c(Cl)c1)Sc1ccccc1`, the T/C by setting is: under setting [1], 95 % of control; under setting [2], 91 % of control.
Regarding `O=C(OCC(O)C(O)C(O)C(COC(=O)c1ccccc1)OC(=O)c1ccccc1)c1ccccc1` (stereo not drawn), the T/C reads like this: (dose: 87.5 mg/kg/injection, schedule: Q01DX009 (ip), vehicle: carboxymethylcellulose (CMC)) 87 % of control; under setting [5], 98 % of control; (dose: 175.0 mg/kg/injection, schedule: Q01DX009 (ip), vehicle: carboxymethylcellulose (CMC)) 90 % of control; under setting [6], 96 % of control; (dose: 350.0 mg/kg/injection, schedule: Q01DX009 (ip), vehicle: carboxymethylcellulose (CMC)) 87 % of control; under setting [7], 93 % of control.
Turning to `O=C(CCCl)[O][Pb]([O]C(=O)CCCl)([c]1ccccc1)[c]1ccccc1`, the T/C under setting [8] is 108 % of control.
On to `CC(=O)C1CC(CC(=O)O)C1(C)C` (stereo not drawn), for which the T/C (dose: 50.0 mg/kg/injection, schedule: Q01DX009 (ip), vehicle: Klucel (hydroxypropylcellulose) (HPC)) was 95 % of control; the T/C under setting [9] is 100 % of control; the T/C under setting [10] was 101 % of control; the T/C under setting [11] is 97 % of control; the T/C under setting [12] was 101 % of control; the T/C under setting [13] was 97 % of control.
With `CSc1nccc(=O)n1C`, the T/C (dose: 12.5 mg/kg/injection, schedule: Q01DX009 (ip), vehicle: saline) was 96 % of control; the T/C (dose: 25.0 mg/kg/injection, schedule: Q01DX009 (ip), vehicle: saline) is 96 % of control; the T/C (dose: 25.0 mg/kg/injection, schedule: Q04DX003 (ip), vehicle: saline) is 98 % of control; the T/C (dose: 50.0 mg/kg/injection, schedule: Q01DX009 (ip), vehicle: saline) is 101 % of control; the T/C under setting [14] is 106 % of control; the T/C under setting [8] is 107 % of control.
Regarding `CCC#CC(O)(C(=O)OCC)C1CCCC1` (stereo not drawn), the T/C is 105 % of control (dose: 100.0 mg/kg/injection, schedule: Q01DX001 (ip), vehicle: saline); 105 % of control (dose: 200.0 mg/kg/injection, schedule: Q01DX001 (ip), vehicle: saline); 111 % of control (dose: 400.0 mg/kg/injection, schedule: Q01DX001 (ip), vehicle: saline).
On to `CCOC(=O)C1=NNC(C(C)=O)(C(=O)OCC)C1CC` (stereo not drawn), for which the T/C under setting [9] is 102 % of control, the T/C under setting [11] is 95 % of control and the T/C under setting [15] is 96 % of control.
With `CCn1c(=O)oc2ccccc2c1=S`, the T/C is, setting by setting: under setting [8], 100 % of control; under setting [16], 96 % of control.
With `CN(N=O)C(=O)NNC(=O)N(C)N=O`, the T/C reads like this: (dose: 6.25 mg/kg/injection, schedule: Q01DX Z (ip), vehicle: carboxymethylcellulose (CMC)) 103 % of control; (dose: 20.0 mg/kg/injection, schedule: Q01DX Z (ip), vehicle: carboxymethylcellulose (CMC)) 152 % of control; (dose: 50.0 mg/kg/injection, schedule: Q01DX Z (ip), vehicle: carboxymethylcellulose (CMC)) 89 % of control.
For `Cc1ccc(Cl)cc1NC(=O)c1ccccc1C(=O)O`, the T/C was 102 % of control under setting [9]; 102 % of control under setting [10]; 97 % of control under setting [11]; 101 % of control under setting [12]; 96 % of control under setting [15]; 102 % of control under setting [13].
As to `CC(=O)Nc1ccc(C(=O)O)c(O)c1`, the T/C under setting [14] was 113 % of control, the T/C under setting [8] was 108 % of control and the T/C under setting [16] was 105 % of control.
On to `C=CCc1c2c(ccc(OC)c1=O)-c1c(cc(OC)c(OC)c1OC)CCC2NC(C)=O` (stereo not drawn), for which the T/C runs as follows: under setting [5], 106 % of control; under setting [6], 109 % of control; under setting [7], 109 % of control.
Consider `C=Cc1c2[n-]c(c1C)/C=c1\[n-]/c(c(C)c1C=C)=C\c1[n-]c(c(CCC(=O)O)c1C)/C=c1\[n-]/c(c(C)c1CCC(=O)O)=C\2.[Co]`, for which the T/C runs as follows: (dose: 100.0 mg/kg/injection, schedule: Q01DX009 (ip), vehicle: dextrose) 88 % of control; (dose: 100.0 mg/kg/injection, schedule: Q04DX003 (ip), vehicle: dextrose) 94 % of control; (dose: 200.0 mg/kg/injection, schedule: Q01DX009 (ip), vehicle: dextrose) 94 % of control; (dose: 200.0 mg/kg/injection, schedule: Q04DX003 (ip), vehicle: dextrose) 104 % of control; (dose: 400.0 mg/kg/injection, schedule: Q04DX003 (ip), vehicle: dextrose) 94 % of control; (dose: 1:1.0 dilution, schedule: Q04DX002 (ip), vehicle: saline) 104 % of control. Further, the T/C by setting is: (dose: 1:2.0 dilution, schedule: Q04DX002 (ip), vehicle: saline) 104 % of control; (dose: 1:4.0 dilution, schedule: Q04DX002 (ip), vehicle: saline) 86 % of control.
With `Cc1ccccc1C(=O)c1ccccc1C`, the T/C (dose: 50.0 mg/kg/injection, schedule: Q01DX001 (ip), vehicle: other) is 118 % of control; the T/C (dose: 100.0 mg/kg/injection, schedule: Q01DX001 (ip), vehicle: other) was 102 % of control; the T/C (dose: 200.0 mg/kg/injection, schedule: Q01DX001 (ip), vehicle: other) was 113 % of control; the T/C (dose: 400.0 mg/kg/injection, schedule: Q01DX001 (ip), vehicle: other) was 107 % of control.

These data come from PubChem BioAssay AID248 (DTP/NCI, 2004).
